{"source": "paper PMC7725824", "about": "“Fused isoselenazolium salts suppress breast cancer cell growth by dramatic increase in pyruvate-dependent mitochondrial ROS production” (Scientific Reports, 2020)", "tested_on": "CL/DOPC liposomes (cardiolipin)", "assay": "1H NMR interaction study with CL-containing liposomes", "assay_type": "binding", "conditions": "0.4 mM 6, 1.2 mM DOPC, 0.4 mM CL, 25 °C", "method": "Cardiolipin (CL) liposomes for NMR analysis were prepared by the thin-film method followed by sonication and extrusion. […] The obtained lipid thin film was dried in vacuo overnight. Then, the dry lipid film was rehydrated in D18 HEPES buffer (20 mM, pH 7.4, 10% D2O) and gently vortexed, and the samples were sonicated for 30 min in a bath-type sonicator. The obtained sample of liposomes was extruded 21 times through a 100-nm pore polycarbonate filter (Nucleopore Corp., CA). Similarly, liposomes from DOPC only were prepared.\nTo study the interactions of compound 6 with CL and DOPC liposomes, a stock solution of 6 (2 mM) in D18 HEPES buffer (20 mM, pH 7.4, 10% D2O) was added to CL/DOPC or DOPC liposome dispersions to reach 400:1200:400 µM CL/DOPC/6 solution or 1600:400 µM DOPC/6 solution followed by gentle vortexing for 30 s.\nNMR spectra were acquired on a 600‐MHz Bruker Avance NEO spectrometer equipped with a 5 mm QCI-F quadruple resonance pulsed‐field‐gradient cryoprobe. The temperature was calibrated against methanol and set to 25 °C. Chemical shifts were referenced to the water resonance at 4.77 ppm with respect to 4,4-dimethyl-4-silapentane-1-sulfonic acid (DSS). The samples contained […] 6 in 90% H2O and 10% D2O with and without DOPC or CL/DOPC liposomes. The NMR data were processed and analyzed using MestReNova software.", "data": [{"smiles": "OC1(c2[se][n+]3ccsc3c2Br)CCCCC1", "note": "[Compound 6, 3-bromo-2-(1-hydroxycyclohexyl)[1,2]selenazolo[2,3-b]thiazolium chloride]", "values": [{"measurement": "1H NMR resonances in the presence of CL-containing liposomes", "result": "broadened"}]}]}
